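Assay format: 96-well plates, 48-hour exposure. TGI denotes the concentration required for complete inhibition of growth.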
How the values were obtained:
Assay in all cases: NCI-60 cell line screen, 48 h
SNB-19 CNS = test system: SNB-19 CNS
K-562 leukemia = test system: K-562 leukemia
U251 CNS = test system: U251 CNS
HCT-116 colon = test system: HCT-116 colon
SNB-75 CNS = test system: SNB-75 CNS
HL-60(TB) leukemia = test system: HL-60(TB) leukemia
UO-31 renal = test system: UO-31 renal
MALME-3M melanoma = test system: MALME-3M melanoma
SW-620 colon = test system: SW-620 colon
ACHN renal = test system: ACHN renal
SK-OV-3 ovarian = test system: SK-OV-3 ovarian
CAKI-1 renal = test system: CAKI-1 renal
MOLT-4 leukemia = test system: MOLT-4 leukemia
OVCAR-3 ovarian = test system: OVCAR-3 ovarian

Structure (SMILES) | TGI (SNB-19 CNS) [µM] | TGI (K-562 leukemia) [µM] | TGI (U251 CNS) [µM] | TGI (HCT-116 colon) [µM] | TGI (SNB-75 CNS) [µM] | TGI (HL-60(TB) leukemia) [µM] | TGI (UO-31 renal) [µM] | TGI (MALME-3M melanoma) [µM] | TGI (SW-620 colon) [µM] | TGI (ACHN renal) [µM] | TGI (SK-OV-3 ovarian) [µM] | TGI (CAKI-1 renal) [µM] | TGI (MOLT-4 leukemia) [µM] | TGI (OVCAR-3 ovarian) [µM]
COc1cc([C@@H]2c3cc4c(cc3[C@@H](NCc3ccccc3F)C3COC(=O)[C@@H]32)OCO4)cc(OC)c1O (stereo partly drawn) | 60.5 | 35.4 | 9.02 | 21.9 | 42.6 | 4.26 | 17.3 | 28.3 | 39.1 | 4.28 | 9.45 | 44.2 | 7.4 | 40.9
CC(C)N(C(=O)C12C3C4C5C3C1(C(=O)O)C5C42)C(C)C (stereo not drawn) | > 100 | > 100 | > 100 | > 100 | > 100 | > 100 | > 100 | > 100 | > 100 | > 100 | > 100 | > 100 | > 100 | > 100
O=C(N/C(=C\c1ccccc1)c1nc2ccccc2c(=O)o1)c1ccccc1 | > 67.1 | > 100 | > 83.3 | > 100 | > 86.3 | > 100 | 97.3 | > 100 | > 100 | > 100 | > 100 | > 100 | > 100 | > 100
O=C(NCCCCCCCCNC(=O)Nc1cccc2ccccc12)Nc1cccc2ccccc12 | > 100 | 46.7 | 8.49 | > 100 | > 100 | > 100 | 47.5 | > 100 | 47.3 | > 100 | – | > 100 | > 100 | > 100
NCCCN(CCCCN(CCCN)Cc1ccccc1)Cc1ccccc1 | 22.5 | > 100 | > 100 | > 100 | 37.6 | > 100 | > 100 | > 100 | > 100 | > 100 | > 100 | 31.9 | 46 | –
CCN(CC)CCCNc1ccc([N+](=O)[O-])c2nc3ccccc3c(N)c12 | 5.5 | 2.35 | – | 1.48 | 2.42 | 2.92 | > 10 | > 10 | 2.04 | – | 3.4 | > 10 | 4.29 | 8.75
CC(NNC(=O)c1ccncc1)c1ccccc1 (stereo not drawn) | > 100 | > 100 | > 100 | > 100 | > 100 | > 100 | > 100 | > 100 | > 100 | > 100 | > 100 | > 100 | > 100 | > 100
C/C(=C/CC[C@](C)(OC1OC(CO)C(O)C(O)C1O)[C@H]1CC[C@]2(C)[C@@H]1CC[C@@H]1[C@@]3(C)CC[C@H](O)C(C)(C)[C@@H]3C[C@H](O)[C@]12CO)CO (stereo partly drawn) | > 100 | > 100 | > 100 | > 100 | > 100 | > 100 | > 100 | > 100 | > 100 | > 100 | > 100 | > 100 | > 100 | > 100

Reference: PubChem BioAssay (NCI)
